These results are taken from ChEMBL document CHEMBL1201862, “PubChem BioAssay data set” (2004).

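Dose response: 5 concentrations. Exposure: 48 h. Format: 96-well plates. Endpoint: linear interpolation; highest concentration if not reached. GI50: concentration for 50% inhibition of growth.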 Activity calls are given as the source filed them. No stated cut-off is given here; in the data, active = GI50 up to about 1.1 µM and inactive = higher.

Among the test systems are ACHN; DU-145; IGROV-1; K562; KM12; MDA-N; NCI-H522; NCI/ADR-RES; OVCAR-4; RPMI-8226; SF-268; SK-MEL-28; SK-MEL-5; SK-OV-3; SNB-19; TK-10; U-251; UACC-62; UO-31; RXF 393.
Holding throughout (assay): NCI anticancer screen, dose series, 48 h

As to `COc1cccc(CCn2c(N)c(-c3cc(Cl)cc(Cl)c3)c3ccc([N+](=O)[O-])cc3c2=O)c1`, the GI50 was 3.26 µM (inactive) in the experiment with ACHN; 2.7 µM (inactive) with DU-145; 3.33 µM (inactive) with IGROV-1; 1.75 µM (inactive) with K562; 3.47 µM (inactive) in the experiment with KM12; 4.53 µM (inactive) in the experiment on MDA-N. Also, the GI50 in the experiment on NCI-H522 was 2.92 µM (inactive); in the experiment on NCI/ADR-RES, 3.27 µM (inactive); in the experiment with OVCAR-4 it was 7.55 µM (inactive); in the experiment with RPMI-8226, 0.65 µM (active); in the experiment on SF-268 it was 5.86 µM (inactive); with SK-MEL-28, 4.84 µM (inactive). Moreover, the GI50 in the experiment with SK-MEL-5 is 2.07 µM (inactive); in the experiment on SK-OV-3, 8.89 µM (inactive); in the experiment on SNB-19, 3.21 µM (inactive); in the experiment on TK-10 it was 4.28 µM (inactive); with U-251 it was 3.63 µM (inactive); in the experiment on UACC-62, 3.33 µM (inactive). In addition, in the experiment with UO-31, the GI50 is 2.68 µM (inactive).

As for `Cc1cc2c(cc1Cl)SC(NNc1cnc3ccccc3n1)=NS2(=O)=O`, the GI50 was > 100 µM (inactive) in the experiment with ACHN; > 100 µM (inactive) in the experiment with DU-145; 41.8 µM (inactive) in the experiment with IGROV-1; 73.3 µM (inactive) in the experiment on K562; 74.3 µM (inactive) in the experiment with KM12; 90.2 µM (inactive) in the experiment on MDA-N. In addition, the GI50 with NCI-H522 is > 100 µM (inactive); in the experiment on NCI/ADR-RES, > 100 µM (inactive); in the experiment on OVCAR-4 it was 56.8 µM (inactive); in the experiment on RXF 393, 40.3 µM (inactive); in the experiment on SF-268, 32.3 µM (inactive); with SK-MEL-28, 60.5 µM (inactive). Also, the GI50 in the experiment with SK-MEL-5 was 66.7 µM (inactive); with SK-OV-3, 44.2 µM (inactive); in the experiment with SNB-19, 50.1 µM (inactive); in the experiment on TK-10 it was > 100 µM (inactive); in the experiment with U-251 it was 48.6 µM (inactive); with UACC-62 it was 60.7 µM (inactive). Besides, the GI50 with UO-31 was 30.4 µM (inactive).

In the case of `CC1=CC[C@@]2(CO)[C@@H]([C@@H]1C)[C@H]1CC[C@@H]3[C@@]4(C)CC[C@H](O)C(C)(C)[C@@H]4CC[C@@]3(C)[C@]1(C)C[C@@H]2O`, the GI50 with ACHN is 20.7 µM (inactive); in the experiment with DU-145, 23 µM (inactive); in the experiment with IGROV-1, 29.3 µM (inactive); in the experiment with K562, 45.7 µM (inactive); in the experiment with KM12, 38.5 µM (inactive); in the experiment on MDA-N, 81.7 µM (inactive). Besides, the GI50 with NCI-H522 was 8.91 µM (inactive); with NCI/ADR-RES, 27.1 µM (inactive); in the experiment on OVCAR-4, 20.8 µM (inactive); in the experiment on RXF 393 it was 7.08 µM (inactive); in the experiment on SF-268, 21 µM (inactive); in the experiment with SK-MEL-28, 43.9 µM (inactive). For the same compound, the GI50 in the experiment with SK-MEL-5 was 13 µM (inactive); in the experiment on SK-OV-3 it was 14.4 µM (inactive); in the experiment with SNB-19 it was 35.1 µM (inactive); with TK-10 it was 18.4 µM (inactive); with U-251, 14.4 µM (inactive); in the experiment on UACC-62, 20.9 µM (inactive). Moreover, in the experiment on UO-31, the GI50 was 53.3 µM (inactive).

As to `O=C1OC(C2Cc3cc4c(cc3C2=O)CCC4)c2ccccc21` (configuration not stated), the GI50 in the experiment with ACHN is 47.9 µM (inactive); with DU-145, 93.1 µM (inactive); with IGROV-1, 45.5 µM (inactive); in the experiment on K562, 33.6 µM (inactive); with KM12, 35.9 µM (inactive); in the experiment on MDA-N, 75.3 µM (inactive). Moreover, the GI50 was 50.4 µM (inactive) in the experiment on NCI-H522; 63.4 µM (inactive) with NCI/ADR-RES; 78.3 µM (inactive) with OVCAR-4; 35.3 µM (inactive) with RPMI-8226; 45.7 µM (inactive) in the experiment on SF-268; 38.5 µM (inactive) in the experiment on SK-MEL-28. For the same compound, the GI50 with SK-MEL-5 was 21.3 µM (inactive); with SK-OV-3, 21.7 µM (inactive); with SNB-19, 32.1 µM (inactive); with TK-10 it was > 100 µM (inactive); with U-251 it was 34 µM (inactive); in the experiment on UACC-62, 20.7 µM (inactive). Also, in the experiment on UO-31, the GI50 is 55.6 µM (inactive).

On to `CCOC(=O)c1ccc(/N=C/C=C(\Nc2ccc(C(=O)OCC)cc2)C23CC4CC(CC(C4)C2)C3)cc1`, for which the GI50 with ACHN was 93.1 µM (inactive); with DU-145 it was 55.1 µM (inactive); with IGROV-1, > 100 µM (inactive); in the experiment with K562, 4.05 µM (inactive); in the experiment with KM12, 43.5 µM (inactive); with MDA-N it was 61.1 µM (inactive). Also, the GI50 in the experiment on NCI-H522 is > 100 µM (inactive); in the experiment on NCI/ADR-RES, > 100 µM (inactive); in the experiment on OVCAR-4, 70 µM (inactive); in the experiment on RXF 393 it was 27 µM (inactive); in the experiment on SF-268, > 100 µM (inactive); in the experiment on SK-MEL-28, > 100 µM (inactive). The GI50 is 30.6 µM (inactive) with SK-MEL-5; > 100 µM (inactive) in the experiment on SK-OV-3; > 100 µM (inactive) with SNB-19; 71.6 µM (inactive) in the experiment on TK-10; > 100 µM (inactive) with U-251; 31 µM (inactive) with UACC-62. The GI50 in the experiment on UO-31 was 3.43 µM (inactive).

For the compound `O=C1CCC2C(O)c3cc4c(cc3C(c3ccc5c(c3)OCO5)N12)OCO4` (configuration not stated), the GI50 in the experiment on ACHN, in the experiment on DU-145, in the experiment on IGROV-1, in the experiment with K562, with KM12 and in the experiment on MDA-N was > 100 µM (inactive) each time. Also, the GI50 in the experiment on NCI-H522 was 89.5 µM (inactive); with NCI/ADR-RES it was 94 µM (inactive); in the experiment on OVCAR-4, > 100 µM (inactive); with RPMI-8226, > 100 µM (inactive); in the experiment with SF-268, 19.2 µM (inactive); with SK-MEL-28 it was > 100 µM (inactive). Further, the GI50 was > 100 µM (inactive) with SK-MEL-5; 40 µM (inactive) with SK-OV-3; 29.2 µM (inactive) in the experiment with SNB-19; > 100 µM (inactive) in the experiment on TK-10; 26.1 µM (inactive) in the experiment with U-251; > 100 µM (inactive) in the experiment with UACC-62. Also, the GI50 in the experiment on UO-31 is 59.7 µM (inactive).

Consider `CN1C(=O)c2c(ccc3c2OCO3)C2C(O)Cc3cc4c(cc3C21)OCO4` (configuration not stated), for which the GI50 in the experiment on ACHN was 7.21 µM (inactive); in the experiment with DU-145 it was 3.65 µM (inactive); in the experiment on IGROV-1, 2.36 µM (inactive); in the experiment on K562, 4.71 µM (inactive); in the experiment with KM12, 3.15 µM (inactive); with MDA-N, 1.91 µM (inactive). The GI50 was 2.87 µM (inactive) in the experiment with NCI-H522; 3.03 µM (inactive) in the experiment with NCI/ADR-RES; > 100 µM (inactive) in the experiment on OVCAR-4; 3.83 µM (inactive) in the experiment on RPMI-8226; 8.75 µM (inactive) in the experiment with SF-268; 3.22 µM (inactive) with SK-MEL-28. The GI50 was 5.51 µM (inactive) with SK-MEL-5; 2.98 µM (inactive) in the experiment on SK-OV-3; 3.21 µM (inactive) in the experiment with SNB-19; 7.8 µM (inactive) in the experiment on TK-10; 4.29 µM (inactive) in the experiment with U-251; 3.36 µM (inactive) with UACC-62. Also, the GI50 in the experiment on UO-31 was 6.37 µM (inactive).

Turning to `COC(=O)C1=C(OC)[C@H]2C#C/C=C\C#C[C@@H]3Nc4c(cc(O)c5c4C(=O)c4ccccc4C5=O)[C@]24O[C@@]34[C@H]1C`, the GI50 in the experiment with ACHN was < 0.01 µM (active); with DU-145, < 0.01 µM (active); in the experiment with IGROV-1, < 0.0127 µM (active); in the experiment with K562, < 0.01 µM (active); in the experiment with KM12, < 0.01 µM (active); in the experiment on MDA-N, < 0.01 µM (active). Also, the GI50 is < 0.01 µM (active) with NCI-H522; < 0.01 µM (active) in the experiment on NCI/ADR-RES; 0.0519 µM (active) in the experiment with OVCAR-4; < 0.01 µM (active) in the experiment with RPMI-8226; < 0.01 µM (active) in the experiment on SF-268; < 0.0229 µM (active) in the experiment on SK-MEL-28. For the same compound, the GI50 with SK-MEL-5 is < 0.01 µM (active); with SK-OV-3, < 0.01 µM (active); in the experiment on SNB-19 it was < 0.01 µM (active); in the experiment on TK-10, 0.0327 µM (active); in the experiment on U-251 it was < 0.01 µM (active); in the experiment on UACC-62, < 0.01 µM (active). Besides, the GI50 in the experiment with UO-31 is < 0.01 µM (active).

In the case of `CC1OC2OC3C(OCC(O)C3O)OC(=O)[C@]34CCC(C)(C)CC3C3=CCC5[C@@]6(C)C[C@H](O)[C@H](OC7OC(CO)C(O)C(O)C7OC7OC(COC(=O)CC(C)(O)CC(=O)OC1C(OC1OC(CO)C(O)C(O)C1O)C2O)C(O)C(O)C7O)[C@@](C)(CO)C6CC[C@@]5(C)[C@]3(C)CC4` (some centres not stated), the GI50 is 2.72 µM (inactive) in the experiment on ACHN; 2.61 µM (inactive) in the experiment on DU-145; 3.9 µM (inactive) in the experiment with IGROV-1; 2.37 µM (inactive) with KM12; 1.44 µM (inactive) with MDA-N; 2 µM (inactive) with NCI-H522. For the same compound, the GI50 in the experiment on NCI/ADR-RES was 3.15 µM (inactive); in the experiment with OVCAR-4, 5.16 µM (inactive); in the experiment on RPMI-8226 it was 2.51 µM (inactive); in the experiment with SF-268, 2.94 µM (inactive); in the experiment on SK-MEL-28 it was 1.3 µM (inactive); in the experiment on SK-MEL-5 it was 0.137 µM (active). For the same compound, the GI50 in the experiment with SK-OV-3 was 12.2 µM (inactive); in the experiment on SNB-19, 5.81 µM (inactive); with TK-10, 1.85 µM (inactive); in the experiment on U-251 it was 2.9 µM (inactive); with UACC-62 it was 1.64 µM (inactive); in the experiment with UO-31 it was 1.64 µM (inactive).

Take `CCOP(=O)(O)CC1OC(CO)C(O)C1O` (configuration not stated): the GI50 with ACHN, in the experiment with DU-145, with IGROV-1, with K562, with MDA-N and with NCI-H522 was > 100 µM (inactive) each time. For the same compound, the GI50 with NCI/ADR-RES, with RXF 393, in the experiment on SF-268, in the experiment with SK-MEL-28, with SK-MEL-5 and in the experiment on SK-OV-3 was > 100 µM (inactive) throughout. The GI50 with SNB-19, in the experiment on TK-10, in the experiment with U-251, in the experiment with UACC-62 and in the experiment with UO-31 was > 100 µM (inactive) each time.
